# Values of other authors as cited in patent publication US20090227666A1, “Enhancing Disease Resistance In An Animal” (Hill's Pet Nutrition, Inc., priority 2007, published 2009).
# System: CD8+ T cell population
# Settings: moderate (101 mg/kg of food) or high (447 mg/kg of food) versus low-normal (17 mg/kg of food)
smiles,measurement,value
CC(=O)Oc1c(C)c(C)c2c(c1C)CCC(C)(CCC[C@H](C)CCC[C@H](C)CCCC(C)C)O2 (stereo partly drawn) [α-tocopheryl acetate],percentages of CD8+ cells,increased percentages of CD8+ cells
